Structures are written as SMILES.

Two molecules from US11708367B2, “Compounds for the treatment of kinase-dependent disorders” (Exelixis, Inc., priority 2018, dated 2023) can be followed below.

The target in one experiment is Met (Homo sapiens (Human), UniProt P08581). Put plainly: Met autophosphorylation ELISA in PC-3 cells. The class given is cell-based. Particulars: cellular, HGF-stimulated, phospho-Met ELISA, read-out: c-Met IC50. Put shortly:
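Serum-starved PC-3 cells treated 1 h with compound (8-point series, 0.3% DMSO), then stimulated 10 min with 100 ng/mL HGF. Phospho-Met (panTyr) quantified in lysates by sandwich ELISA; IC50 from 4-parameter logistic fit against DMSO and reference-inhibitor controls.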
(ELISA stands for enzyme-linked immunosorbent assay.)

In experiment [1] the target is T1, Mer (Homo sapiens (Human), UniProt Q12866). Put plainly: Human Mer kinase assay (33P radiometric, KinaseProfiler). Particulars: 10 μM ATP. The class given is biochemical.
Target sequence in this assay (Q12866 557-882): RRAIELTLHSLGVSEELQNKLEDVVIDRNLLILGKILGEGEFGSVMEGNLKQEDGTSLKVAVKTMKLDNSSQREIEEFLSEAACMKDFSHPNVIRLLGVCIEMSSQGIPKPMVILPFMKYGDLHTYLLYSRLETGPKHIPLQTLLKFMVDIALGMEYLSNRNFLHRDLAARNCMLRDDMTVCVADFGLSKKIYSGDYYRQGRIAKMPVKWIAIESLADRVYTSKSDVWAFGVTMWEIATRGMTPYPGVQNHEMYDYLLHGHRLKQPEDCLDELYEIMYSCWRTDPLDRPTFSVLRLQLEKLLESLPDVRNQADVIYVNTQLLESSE
Experiment [2] concerns the target T1, Mer. Put plainly: Mer autophosphorylation ELISA in transient transfected 293A cells. The class given is cell-based. Particulars: cellular, MERTK-transfected 293A cells, phospho-Mer ELISA.
Target sequence in this assay (Q12866 21-999): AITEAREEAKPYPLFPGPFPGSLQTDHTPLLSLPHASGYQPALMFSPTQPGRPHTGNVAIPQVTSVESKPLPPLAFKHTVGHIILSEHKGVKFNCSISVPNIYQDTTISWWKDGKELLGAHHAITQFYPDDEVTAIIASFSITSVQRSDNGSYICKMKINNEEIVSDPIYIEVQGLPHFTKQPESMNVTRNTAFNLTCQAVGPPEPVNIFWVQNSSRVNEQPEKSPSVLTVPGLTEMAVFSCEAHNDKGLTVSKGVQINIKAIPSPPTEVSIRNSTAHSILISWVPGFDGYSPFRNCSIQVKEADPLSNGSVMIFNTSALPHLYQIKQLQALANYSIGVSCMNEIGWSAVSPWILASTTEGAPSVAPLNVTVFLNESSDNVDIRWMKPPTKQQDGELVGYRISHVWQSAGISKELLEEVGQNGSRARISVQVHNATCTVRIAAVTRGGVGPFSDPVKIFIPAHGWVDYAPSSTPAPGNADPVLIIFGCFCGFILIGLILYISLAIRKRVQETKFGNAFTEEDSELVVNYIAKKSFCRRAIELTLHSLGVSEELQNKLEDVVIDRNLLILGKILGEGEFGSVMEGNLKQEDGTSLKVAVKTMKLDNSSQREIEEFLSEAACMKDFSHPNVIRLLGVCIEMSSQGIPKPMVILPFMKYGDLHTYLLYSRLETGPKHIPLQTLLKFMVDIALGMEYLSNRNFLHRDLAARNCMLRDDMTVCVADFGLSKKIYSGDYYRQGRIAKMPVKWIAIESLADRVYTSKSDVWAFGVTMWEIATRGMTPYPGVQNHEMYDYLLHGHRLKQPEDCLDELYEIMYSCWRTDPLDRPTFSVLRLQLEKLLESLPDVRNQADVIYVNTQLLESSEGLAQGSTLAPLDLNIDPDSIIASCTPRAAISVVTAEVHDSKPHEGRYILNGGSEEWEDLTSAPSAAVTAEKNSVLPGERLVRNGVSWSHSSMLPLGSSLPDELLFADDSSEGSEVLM

Chain of Met (P08581 25-1390): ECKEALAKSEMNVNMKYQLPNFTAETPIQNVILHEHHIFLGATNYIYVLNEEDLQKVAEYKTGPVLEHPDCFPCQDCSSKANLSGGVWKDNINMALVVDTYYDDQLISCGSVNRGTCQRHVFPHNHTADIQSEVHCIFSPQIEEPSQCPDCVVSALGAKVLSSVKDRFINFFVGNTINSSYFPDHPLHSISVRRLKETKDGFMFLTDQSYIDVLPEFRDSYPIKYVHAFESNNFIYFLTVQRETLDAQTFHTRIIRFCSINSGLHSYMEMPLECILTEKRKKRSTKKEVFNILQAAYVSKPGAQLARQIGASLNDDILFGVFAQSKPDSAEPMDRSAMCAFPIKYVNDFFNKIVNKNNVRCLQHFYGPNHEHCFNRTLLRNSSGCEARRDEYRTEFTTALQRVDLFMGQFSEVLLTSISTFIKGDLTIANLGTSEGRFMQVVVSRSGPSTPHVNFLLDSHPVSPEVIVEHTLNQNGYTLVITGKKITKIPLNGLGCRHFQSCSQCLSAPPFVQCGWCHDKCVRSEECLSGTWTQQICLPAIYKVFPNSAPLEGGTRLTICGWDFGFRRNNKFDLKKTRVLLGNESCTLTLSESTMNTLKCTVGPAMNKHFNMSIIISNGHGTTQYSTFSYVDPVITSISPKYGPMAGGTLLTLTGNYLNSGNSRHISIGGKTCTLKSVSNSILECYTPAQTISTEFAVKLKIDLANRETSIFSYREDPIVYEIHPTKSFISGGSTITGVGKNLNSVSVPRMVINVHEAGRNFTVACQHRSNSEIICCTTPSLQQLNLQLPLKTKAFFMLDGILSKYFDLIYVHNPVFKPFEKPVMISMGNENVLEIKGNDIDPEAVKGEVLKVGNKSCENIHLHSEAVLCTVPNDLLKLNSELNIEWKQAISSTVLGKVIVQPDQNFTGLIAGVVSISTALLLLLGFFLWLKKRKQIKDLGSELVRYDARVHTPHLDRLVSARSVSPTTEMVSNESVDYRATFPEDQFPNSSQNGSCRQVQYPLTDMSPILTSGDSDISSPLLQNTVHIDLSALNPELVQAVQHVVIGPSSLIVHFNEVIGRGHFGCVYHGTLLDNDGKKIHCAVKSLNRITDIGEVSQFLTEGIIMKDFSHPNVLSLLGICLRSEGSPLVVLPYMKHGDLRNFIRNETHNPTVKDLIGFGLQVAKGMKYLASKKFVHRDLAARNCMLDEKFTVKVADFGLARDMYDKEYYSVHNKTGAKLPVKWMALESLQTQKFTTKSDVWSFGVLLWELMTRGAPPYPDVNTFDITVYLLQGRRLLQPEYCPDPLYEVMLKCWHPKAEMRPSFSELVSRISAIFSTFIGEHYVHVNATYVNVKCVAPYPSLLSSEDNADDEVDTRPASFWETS

One may read the IC50 as the concentration at which inhibition is half-maximal. Regarding `COc1cc2nccc(Oc3ccc(NC(=O)C4(C(=O)Nc5ccc(F)cc5)CC4)cc3)c2nc1OC` [Compound 139, 1-N-[4-[(6,7-dimethoxy-1,5-naphthyridin-4-yl)oxy]phenyl]-1-N′-(4-fluorophenyl)cyclo-propane-1,1-dicarboxamide], the concentration for half-maximal inhibition (IC50) on Met is 0.01 to 0.1 µM; against Mer [1], at most 0.01 µM; at Mer [2], at most 0.01 µM.

Regarding `COc1cc2nccc(Oc3ccc(NC(=O)C4(C(=O)Nc5ccc(F)cc5)CC4)cc3F)c2nc1OC` [Compound 140, 1-N′-[4-[(6,7-dimethoxy-1,5-naphthyridin-4-yl)oxy]-3-fluorophenyl]-1-N-(4-fluorophenyl)cyclopropane-1,1-dicarboxamide], the IC50 at Met, against Mer [1] and on Mer [2] was at most 0.01 µM each time.
